Molecular target: T1, human RXFP1 (Homo sapiens, UniProt Q9HBX9)
T1 construct: expressed in transfected cells
T1 sequence (Q9HBX9 1-757): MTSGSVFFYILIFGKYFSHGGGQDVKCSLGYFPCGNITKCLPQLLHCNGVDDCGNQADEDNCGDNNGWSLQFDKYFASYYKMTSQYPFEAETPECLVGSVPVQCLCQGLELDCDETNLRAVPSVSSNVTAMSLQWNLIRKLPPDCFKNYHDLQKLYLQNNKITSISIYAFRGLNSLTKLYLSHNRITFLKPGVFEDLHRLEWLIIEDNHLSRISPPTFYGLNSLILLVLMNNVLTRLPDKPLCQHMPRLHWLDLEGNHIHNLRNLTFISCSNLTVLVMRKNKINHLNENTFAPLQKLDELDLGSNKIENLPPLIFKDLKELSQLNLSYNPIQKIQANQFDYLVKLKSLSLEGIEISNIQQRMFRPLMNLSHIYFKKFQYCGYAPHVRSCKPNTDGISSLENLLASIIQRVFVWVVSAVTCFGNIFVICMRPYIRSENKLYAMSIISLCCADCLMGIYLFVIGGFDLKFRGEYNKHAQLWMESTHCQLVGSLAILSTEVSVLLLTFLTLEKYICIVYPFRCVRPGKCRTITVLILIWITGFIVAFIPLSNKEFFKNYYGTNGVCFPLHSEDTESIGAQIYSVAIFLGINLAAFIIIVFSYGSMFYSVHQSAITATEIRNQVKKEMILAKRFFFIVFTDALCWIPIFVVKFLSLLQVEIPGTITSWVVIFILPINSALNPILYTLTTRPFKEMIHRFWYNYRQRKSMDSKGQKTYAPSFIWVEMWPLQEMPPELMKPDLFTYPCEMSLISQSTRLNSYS
Test: RXFP1 cAMP assay (hRXFP1 HEK293 cAMP assay, HTRF)
Assay type: cell-based
Details: HEK293 cells stably expressing human RXFP1, 30 min at room temperature, read-out: cAMP hRXFP1 HEK293 Assay EC50
Summary of the method: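 HEK293 cells stably expressing human RXFP1 (1500 cells/well) in HBSS/20 mM HEPES/0.05% BSA/0.5 mM IBMX. Compounds were tested at 0.010 nM–50 μM final (2% DMSO) for 30 min at room temperature. cAMP was measured by HTRF and values derived by 4-parameter logistic fit.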

| SMILES | EC50 |
| --- | --- |
| CNC(=O)OC(c1ccc(F)c(-c2ccc(OC)c(C(=O)N[C@@H]3C4CCC(/C4=C/C4CC4)[C@@H]3C(=O)Nc3ccc(F)c(C(F)(F)F)c3)c2)c1)C(F)(F)F (some centres unmarked) [compound 217] | 2 nM |
| COc1ccc(C2CN(C(=O)N3CCC(O)CC3)C2)cc1C(=O)N[C@H]1[C@@H](C(=O)Nc2ccc(F)c(C(F)(F)F)c2)[C@H]2CC[C@@H]1/C2=C\C1CC1 [compound 527] | 22.4 nM |
| COc1ccc(C2=NOC3COCC23)cc1C(=O)N[C@H]1[C@@H](C(=O)NCCC(C)(C)C)[C@H]2CC[C@@H]1/C2=C\C1CC1 (some centres unmarked) [compound 612] | 134 nM |
| COc1cc(F)c(C2=NOC3COCC23)cc1C(=O)N[C@H]1[C@@H](C(=O)Nc2ccc(F)c(C(F)(F)F)c2)[C@H]2CC[C@@H]1/C2=C\C1CC1 (stereo partly drawn) [Example 419, (1R,2S,3R,4R,Z)-7-(cyclopropylmethylene)-3-(4-fluoro-2-methoxy-5-(3a,4,6,6a-tetrahydrofuro[3,4-d]isoxazol-3-yl)benzamido)-N-(4-fluoro-3-(trifluoromethyl)phenyl)bicyclo[2.2.1]heptane-2-carboxamide] | 17 nM |
| COc1ccc(C2CCCN(C(=O)C(=O)O)C2)cc1C(=O)NC1C2CCC(/C2=C/C(F)(F)F)C1C(=O)Nc1ccc(F)c(C(F)(F)F)c1 (centres unmarked) [compound 368] | 639 nM |
| COc1ccc(-c2cc(C(OC(=O)NC3CC3)C(F)(F)F)ccc2F)cc1C(=O)N[C@@H]1C2CCC(/C2=C/C2CC2)[C@@H]1C(=O)Nc1ccc(F)c(C(F)(F)F)c1 (some centres unmarked) [compound 208] | 1 nM |
| COc1c(F)cc(C2=NOC3CC(O)(C(F)(F)F)CC23)cc1C(=O)N[C@H]1[C@@H](C(=O)N[C@H](C)C2(C)CC2)[C@H]2CC[C@@H]1/C2=C\c1cnc(C(F)(F)F)s1 (some centres unmarked) [compound 917] | 1.3 nM |
| COc1ccc(-c2cc(C(=O)O)ccc2F)cc1C(=O)N[C@@H]1C2CCC(/C2=C/C2CC2)[C@@H]1C(=O)NC1CCC1 (some centres unmarked) [compound 202] | 180 nM |
| COc1ccc(-c2ccc(F)nc2F)cc1C(=O)N[C@H]1[C@@H](C(=O)Nc2ccc(F)c(C(F)(F)F)c2)[C@H]2CC[C@@H]1C2=C(C)C [compound 106] | 2700 nM |
| COc1cc(F)c(F)cc1C(=O)N[C@@H]1C2CCC(/C2=C/c2cncnc2)[C@@H]1C(=O)Nc1ccc(F)c(C(F)(F)F)c1 (some centres unmarked) [compound 63] | 510 nM |
| COc1ccc(-c2cc(C(F)(F)F)cnc2F)cc1C(=O)N[C@@H]1C2CCC(/C2=C/C2CC2)[C@@H]1C(=O)Nc1ccc(F)c(C(F)(F)F)c1 (some centres unmarked) [compound 282] | 25 nM |
| COc1ccc(C2=NOC(C3(O)CCC3)C2)cc1C(=O)N[C@H]1[C@@H](C(=O)Nc2ccc(F)c(C(F)(F)F)c2)[C@H]2CC[C@@H]1/C2=C\C1CC1 (single isomer, unassigned) [compound 603] | 112 nM |
| CC[C@@H](NC(=O)[C@@H]1[C@H](NC(=O)c2cc(C3=NOC4COCC34)ccc2OC)[C@@H]2CC[C@H]1/C2=C/C1CC1)C1CCC1 (some centres unmarked) [Example 578] | 70.8 nM |
| COc1ccc(-c2cc([C@H](OC(=O)NC3CCC3)C(F)(F)F)ccc2F)cc1C(=O)N[C@@H]1C2CCC(/C2=C/CCC(F)(F)F)[C@@H]1C(=O)Nc1ccc(F)c(C(F)(F)F)c1 (some centres unmarked) [compound 923] | 4.7 nM |
| COc1c(F)cc(C2=NOC3CC(C)(CO)CC23)cc1C(=O)N[C@H]1[C@@H](C(=O)N[C@H](C)C2(C)CC2)[C@H]2CC[C@@H]1/C2=C\C1CC1 (some centres unmarked) [compound 961] | 1 nM |
| O=C(N[C@H]1[C@@H](C(=O)Nc2ccc(F)c(C(F)(F)F)c2)[C@H]2CC[C@@H]1/C2=C\C1CC1)c1cc(C2=NOC3COCC23)ccc1OCCC(F)(F)F (some centres unmarked) [compound 780] | 1.8 nM |
| COc1cc(F)c(F)cc1C(=O)N[C@@H]1C2CCC(/C2=C/C=C/c2ccccc2)[C@@H]1C(=O)Nc1ccc(F)c(C(F)(F)F)c1 (some centres unmarked) [compound 64] | 520 nM |
| COc1ccc(-c2cccc(S(C)(=O)=O)c2)cc1C(=O)N[C@H]1[C@@H](C(=O)Nc2ccc(F)c(C(F)(F)F)c2)[C@H]2CC[C@@H]1/C2=C\C1CC1 [compound 898] | 3.9 nM |
| COc1ccc(C2=NOC3CC(CO)CC23)cc1C(=O)N[C@H]1[C@@H](C(=O)Nc2ccc(F)c(C(F)(F)F)c2)[C@H]2CC[C@@H]1/C2=C\C1CCC1 (some centres unmarked) [compound 446] | 0.6 nM |
| CCO/N=C1\C2CCC1[C@H](C(=O)Nc1ccc(F)c(C(F)(F)F)c1)[C@@H]2NC(=O)c1cc(F)c(F)cc1OC (some centres unmarked) [compound 133] | 1700 nM |
| COc1ccc(C2CC(O)C(=O)N2C)cc1C(=O)N[C@@H]1C2CCC(/C2=C/C2CC2)[C@@H]1C(=O)Nc1ccc(F)c(C(F)(F)F)c1 (single isomer, unassigned) [Example 414] | 364 nM |
| COc1ccc(-c2cccc3c2CN(C(=O)N(C)c2ccccc2)C3)cc1C(=O)N[C@H]1[C@@H](C(=O)Nc2ccc(F)c(C(F)(F)F)c2)[C@H]2CC[C@@H]1/C2=C\C1CC1 [compound 886] | 2.7 nM |
| COc1ccc(-c2cc(C(OC(=O)NC34CC(C3)C4)C(F)F)ccc2F)cc1C(=O)N[C@@H]1C2CCC(/C2=C/C2CC2)[C@@H]1C(=O)Nc1ccc(F)c(C(F)(F)F)c1 (some centres unmarked) [compound 232] | 1 nM |
| COc1ncc(-c2ccc(OC)c(C(=O)N[C@H]3[C@@H](C(=O)Nc4ccc(F)c(C(F)(F)F)c4)[C@H]4CC[C@@H]3C4=C(C)C)c2)cn1 [compound 88] | 190 nM |
| COc1ccc(-c2cc(C(COC(=O)NC3CCC3)C(F)(F)F)ccc2F)cc1C(=O)N[C@H]1[C@@H](C(=O)Nc2ccc(F)c(C(F)(F)F)c2)[C@H]2CC[C@@H]1/C2=C\C1CC1 (some centres unmarked) [compound 879] | 0.9 nM |

More lines, in order of falling EC50, values ahead:

| EC50 | SMILES |
| --- | --- |
| 735 nM | COc1ccc(C2=NOC3CN(CCO)CC23)cc1C(=O)N[C@H]1[C@@H](C(=O)Nc2ccc(F)c(C(F)(F)F)c2)[C@H]2CC[C@@H]1/C2=C\C1CC1 (single isomer, unassigned) [compound 691] |
| 330 nM | COc1ccc(-c2ccncc2OC)cc1C(=O)N[C@H]1[C@@H](C(=O)Nc2ccc(F)c(C(F)(F)F)c2)[C@H]2CC[C@@H]1C2=C(C)C [compound 89] |
| 130 nM | COc1cc(F)c(F)cc1C(=O)N[C@@H]1C2CCC(/C2=C/C2=CCOCC2)[C@@H]1C(=O)Nc1ccc(F)c(C(F)(F)F)c1 (some centres unmarked) [compound 42] |
| 36.6 nM | COCC1CC(c2ccc(OC)c(C(=O)N[C@H]3[C@@H](C(=O)Nc4ccc(F)c(C(F)(F)F)c4)[C@H]4CC[C@@H]3C4=CC3CC3)c2)=NO1 (some centres unmarked) [compound 551] |
| 15.3 nM | COc1ccc(C2=NOC3(C2)CC(CO)C3)cc1C(=O)N[C@H]1[C@@H](C(=O)Nc2ccc(F)c(C(F)(F)F)c2)[C@H]2CC[C@@H]1/C2=C\C1CC1 (some centres unmarked) [Example 511] |
| 15.2 nM | COc1ccc(C2=NOC(C(C)O)C2)cc1C(=O)N[C@H]1[C@@H](C(=O)Nc2ccc(F)c(C(F)(F)F)c2)[C@H]2CC[C@@H]1/C2=C\C1CC1 (single isomer, unassigned) [compound 509] |
| 13 nM | O=C(NC1CCC1)O[C@@H](c1ccc(F)c(-c2ccc(OCCO)c(C(=O)N[C@@H]3C4CCC(/C4=C/C(F)(F)F)[C@@H]3C(=O)Nc3ccc(F)c(C(F)(F)F)c3)c2)c1)C(F)(F)F (some centres unmarked) [compound 319] |
| 12 nM | COc1ccc(N2CCCS2(=O)=O)cc1C(=O)N[C@@H]1C2CCC(/C2=C/C2CC2)[C@@H]1C(=O)Nc1ccc(F)c(C(F)(F)F)c1 (some centres unmarked) [compound 372] |
| 4.5 nM | COc1ccc(-c2cnc3cc(CO)ccn23)cc1C(=O)N[C@@H]1C2CCC(/C2=C/C2CC2)[C@@H]1C(=O)Nc1ccc(F)c(C(F)(F)F)c1 (some centres unmarked) [compound 974] |
| 4.4 nM | COc1c(F)cc(C2=NOC3CC(CO)CC23)cc1C(=O)N[C@H]1[C@@H](C(=O)NC23CC(C#N)(C2)C3)[C@H]2CC[C@@H]1/C2=C\C1CC1 (some centres unmarked) [compound 775] |
| 4.3 nM | COc1ccc(C2=NO[C@H]3CC(CO)C[C@@H]23)cc1C(=O)N[C@H]1[C@@H](C(=O)Nc2ccc(F)c(C(F)(F)F)c2)[C@H]2CC[C@@H]1/C2=C\CC1CCC1 (some centres unmarked) [compound 837] |
| 3.5 nM | COc1ccc(C2=NO[C@H]3C[C@H](CO)C[C@@H]23)cc1C(=O)N[C@H]1[C@@H](C(=O)NC23CC(C)(C2)C3)[C@H]2CC[C@@H]1/C2=C\C[C@@H](O)C(F)(F)F [compound 831] |
| 3.1 nM | COc1ccc(C2=NO[C@H]3COC[C@@H]23)cc1C(=O)N[C@H]1[C@@H](C(=O)Nc2ccc(F)c(C(F)(F)F)c2)[C@H]2CC[C@@H]1/C2=C\C(C)C [compound 827] |
| 2.5 nM | COc1c(F)cc(C2=NOC3CC(CO)CC23)cc1C(=O)N[C@H]1[C@@H](C(=O)N[C@H](C)C2(C)CC2)[C@H]2CC[C@@H]1/C2=C\CC(O)C(F)(F)F (some centres unmarked) [compound 821] |
| 1.6 nM | COc1ccc(C2=NOC3CC(CO)CC23)cc1C(=O)N[C@H]1[C@@H](C(=O)Nc2ccc(F)c(C(F)(F)F)c2)[C@H]2CC[C@@H]1/C2=C\C(C)C (some centres unmarked) [compound 450] |
| 1.3 nM | COc1ccc(C2=NOC3CC(C(C)O)CC23)cc1C(=O)N[C@H]1[C@@H](C(=O)Nc2ccc(F)c(C(F)(F)F)c2)[C@H]2CC[C@@H]1/C2=C\C1CC1 (some centres unmarked) [compound 845] |
